In patent US8802416B2, “Thermostable organic solvent tolerant protease from gram-positive bacteria” (Universiti Putra Malaysia, priority 2009, dated 2014):
Square brackets hold non-standard residues; d marks the D form. Peptide text beside a SMILES is read from it. * marks the point of attachment. Sta = CC(C)C[C@H](N)[C@@H](O)CC(=O)O; Isovaleryl = CC(C)CC(=O)*

Legend:
Rand protease [1] = experiment: Effect of inhibitors on protease activity; format: biochemical, Bacillus subtilis isolate Rand; conditions: 5 mM inhibitor, 30 min at 37° C., relative to control
Protocol: Purified Rand protease was incubated with 5 mM of different inhibitors at 37° C. for 30 min.
All the inhibitors were used at 5 mM final concentration.

Rand protease [2] = experiment: Effect of metal ions on protease activity; format: biochemical, Bacillus subtilis isolate Rand; conditions: 5 mM metal ion, 37° C., 30 min; control no ions
Protocol: Purified Rand protease was treated with 5 mM of various metal ions at 37° C. for […].
The effect of metal ions on protease activity was determined by incubating the protease with different metal ions at 5 mM final concentration. The metal ions used were K^+, Na^+, Mg^2+, Ca^2+, Mg^2+, Fe^2+, Co^2+, Cu^2+, Zn^2+ and […]. The samples were incubated at 37° C. for 30 min. […] The control contained no ions.

[3] = system: thermophilic Bacillus strain HS08 protease; conditions: cited from earlier work
[4] = system: Bacillus sp. TKU004 protease; conditions: zinc ions; cited from earlier work
[5] = system: protease activity of B. megaterium; conditions: presence of Zn2+; cited from earlier work
Rand protease [6] = experiment: Effect of organic solvents on purified Rand protease activity; format: biochemical, Bacillus subtilis isolate Rand; conditions: 25% (v/v) solvent, 37° C., 150 rpm, 30 min, no solvent = 100%
Protocol: . Three ml of purified Rand protease were incubated with 1 ml of different organic solvents at 37° C. with shaking at 150 rpm for 30 min. The activity of the enzyme without any solvent (none) was taken as 100%.
The effects of organic solvents with various log P on protease activity were determined. […] . The control was done in the absent of organic solvent and assay under the same experimental conditions. The protease was incubated in the presence of 25% (v/v) of organic solvents for 30 min. The incubation was performed at 37° C. in water bath shaker with 150 rpm. The samples were removed and immediately vortex prior to assay the protease activity.

[7] = cited from earlier work
Rand protease [8] = experiment: Effect of organic solvents on stability of crude Rand protease (cell-free supernatant); format: biochemical, Bacillus subtilis isolate Rand; conditions: 25% (v/v) solvent, 55° C., 150 rpm, 30 min, control distilled water
Protocol: 1. […] Three ml aliquots of a cell-free supernatant culture were incubated with 1 ml of different organic solvents at 55° C. with shaking at 150 rpm for 30 min.
Each sample was run in triplicate.
Isolate Rand was cultured aerobically at 50° C. for 24 h in the absence of organic solvents. The culture medium was then centrifuged at 12,000×g and 4° C. for 10 min. The supernatant was filtered with a cellulose acetate membrane filter (pore size 0.22 μm). One mL organic solvent was added to 3.0 mL of the cell-free supernatant and the whole mixture was incubated in shaker 150 rpm at 55° C. for 30 min. The samples were removed and immediately vortex prior to assay at zero time and after incubation period. For control the solvent was replaced by distilled water.

O[C@@H](CS)[C@@H](O)CS (racemic) [DTT, 1,4-Dithio-DL-threitol]
reduction (inhibition) of protease activity (Rand protease [1]): 30%

OCCS [2-mercaptoethanol, 2-Mercaptoethanol]
reduction (inhibition) of protease activity (Rand protease [1]): About 90%

CC(C)C[C@H](NC(=O)[C@@H](O)[C@H](N)Cc1ccccc1)C(=O)O [Bestatin, bestatin]
protease activity retained (Rand protease [1]): about 95%

[Ca+2] [Ca^2+]
protease activity in the presence of metal ion (Rand protease [2]): around 89%
influence on proteolytic activity ([3]; Ca2+ ions): did not show any influence

[Co+2] [Co^2+]
protease activity in the presence of metal ion (Rand protease [2]): inhibitory effects

[Cu+2] [Cu^2+]
protease activity in the presence of metal ion (Rand protease [2]): inhibitory effects

[Fe+2] [Fe^2+]
protease activity in the presence of metal ion (Rand protease [2]): inhibitory effects

[K+] [K^+]
protease activity in the presence of metal ion (Rand protease [2]): ~112%

[Mg+2] [Mg^2+]
protease activity in the presence of metal ion (Rand protease [2]): inhibitory effects

[Ni+2] [Ni^2+]
protease activity in the presence of metal ion (Rand protease [2]): inhibitory effects

O=S(=O)(F)Cc1ccccc1 [PMSF, phenylmethanesulfonyl fluoride]
reduction (inhibition) of protease activity (Rand protease [1]): completely inhibited

CC(C)CC(=O)N[C@H](C(=O)N[C@H](C(=O)N[C@@H](CC(C)C)[C@@H](O)CC(=O)N[C@@H](C)C(=O)N[C@@H](CC(C)C)[C@@H](O)CC(=O)O)C(C)C)C(C)C [Pepstatin A, pepstatin A] (Isovaleryl-VV[Sta]A[Sta]-OH)
protease activity retained (Rand protease [1]): ~63%

[Zn+2] [Zn^2+]
activity of the apo-enzyme restored, of the original level [4]: 75%
relative activity ([3]; 2 mM Zn2+): 109%
relative activities [5]: 28%

ClC(Cl)Cl [chloroform]
relative activity remaining in organic solvent (Rand protease [6]): 18%

CCCCCCCCCCCC [n-dodecane]
log P [7]: 6.0

CCCCCCCCCCCCCC [n-tetradecane]
log P [7]: 7.6

c1ccncc1 [pyridine]
remaining activity of Rand protease in the presence of organic solvent (Rand protease [8]): no activity was observed

Cc1ccccc1 [toluene]
remaining activity of Rand protease in the presence of organic solvent (Rand protease [8]): 130%
remaining activity of Rand protease in the presence of organic solvent (Rand protease [8]; listed as toluen): enhanced
